The record followed here is US7910344B2, “Proteins having tyrosinase activity” (Valtion teknillinen tutkimuskeskus, priority 2005, dated 2011).

For test [1], the system named is TYR2. The test is described as follows: Substrate specificity by oxygen consumption measurements, purified TYR2. The test is classed as biochemical, Trichoderma reesei. As for the experimental part:
(§1) pH optimum for the tyrosinase was studied by oxygen consumption measurements. Measurements were performed with a single channel oxygen meter (Precision sensing GmbH, Germany) containing fiber-optic oxygen minisensors with measurement range 0-100% oxygen. L-Dopa in 15 mM concentration, dissolved in 0.1 M sodium phosphate buffer, pH 7.0, was used as substrate. Reactions were carried out with 1.8 ml substrate solution and with 4.3 μg of the purified T. reesei tyrosinase. Three different buffers were used according to their buffer capacity. McIlvaine buffer was used within a pH range of 2-7, Tris-HCl buffer (50 mM) within a pH range 7-9 and borate buffer (12.5 mM) within a pH range of 8-9.5. […] In the measurements with Tris-HCl buffer in pH 8, 8.5 and 9.0 also a blank test without enzyme addition was performed to correct the effect of auto-oxidation in results.
(§2) Substrate specificity of the tyrosinase on various selected substrates was studied by oxygen consumption measurements. The concentration of substrates was 2.5 mM, and the compounds were dissolved in 0.1 M sodium phosphate buffer, pH 7.0. Reactions were carried out with 1.8 ml of 2.5 mM substrate solutions and with 24 μg of the purified TYR2. As a reference the substrate specificity assays were also determined for the commercial Agaricus bisporus crude tyrosinase (Sigma). Respectively, 50 μg of said mushroom tyrosinase was used in the assays. Activity of TYR2 and Agaricus tyrosinase were analyzed on selected model peptides containing tyrosine in different positions in the peptide chain (Table 5). Oxidation of L-/DL-D-Dopa and -tyrosine by TYR2 and Agaricus tyrosinase was also measured (Table 6).

The subject of test [2] is Agaricus bisporus crude tyrosinase (Sigma). Put plainly: Substrate specificity by oxygen consumption measurements, commercial Agaricus tyrosinase. The test is classed as biochemical. To be noted: for Agaricus tyr Relative oxygen consumption (%): mono-phenols. The procedure:
as §1, §2

Test [3] relates to Trichoderma reesei. Put plainly: Plate test screening for tyrosinase activity from T. reesei. The format is cell-based. To be noted: T. reesei on Malt Extract agar with indicator. As for the experimental part: The indicators for tyrosinase activity screening were selected according to literature. L-Tyrosine, p-cresol, p-coumaric acid, tyramine, 3-hydroxy antranilic acid, and catechin were used in concentrations shown in Table 1. Trichoderma reesei was grown on Malt Extract agar containing the selected indicators (Table 1) (Difco) at 37° C. for 48 days. Possible colour changes on the plates were observed visually.

Test [4] has as its system TYR2. Put plainly: Tyrosinase activity assay monitoring dopachrome formation at 475 nm. The format is biochemical, Trichoderma reesei.
Description: The activity was also measured on L-tyrosine (Sigma) in concentration of 2 mM. Both activity assays were carried out in 0.1 M sodium phosphate buffer (pH 7.0) at 25° C. monitoring dopachrome formation at 475 nm. The molar extinction coefficient ε 3400 M^−1 cm^−1 (Robb, 1984) was used. Measurements were carried out by using a two-beam spectrophotometer (Lambda 20, Perkin-Elmer, Über-lingen, Germany). Activities were expressed as nanokatals.
The result was also confirmed by determining the enzyme activity on L-Dopa and L-tyrosine by following oxygen consumption in enzymatic reaction. […] The effect of SDS (Sigma) on tyrosinase activity was measured using different concentrations of SDS in the activity assay.
[5] abbreviates: L-/DL-/D-tyrosine, L-tyrosine = 100.
[6] abbreviates: mono-phenols, in relation to L-tyrosine, 2.5 mM substrate, pH 7.0, 24 μg TYR2.
Where [7] appears, read: in relation to L-tyrosine, 2.5 mM substrate, pH 7.0, 50 μg mushroom tyrosinase.
Where [8] appears, read: di- and tri-phenolic compounds, in relation to L-Dopa, 2.5 mM substrate, pH 7.0, 24 μg TYR2.
[9] abbreviates: di- and tri-phenolic compounds, in relation to L-Dopa, 2.5 mM substrate, pH 7.0, 50 μg mushroom tyrosinase.
[10] abbreviates: di-peptides, in relation to L-tyrosine, 2.5 mM substrate, pH 7.0.

Read-outs that look alike come from different tables or passages of the source.

As for `NC(Cc1ccc(O)c(O)c1)C(=O)O` (racemic) [DL-dopa], the “TYR2 Relative oxygen consumption (%)” value in test [1] (L-/DL-/D-dopa, L-dopa = 100) was found to be 46%. The “Agaricus tyrosinase Relative oxygen consumption (%)” value in test [2] (L-/DL-/D-dopa, L-dopa = 100) is listed as 118%.

As to `NC(Cc1ccc(O)cc1)C(=O)O` (racemic) [DL-tyrosine], the “TYR2 Relative oxygen consumption (%)” value in test [1] (setting [5]) is 40%. The “Agaricus tyrosinase Relative oxygen consumption (%)” value in test [2] is given as 102%.

`Nc1c(O)cccc1C(=O)O` [3-Hydroxyanthranilic acid]: the “Reaction with indicator in plate test” value in test [3] is recorded as “clear positive reactions”. Also, the “TYR2 Relative oxygen consumption (%)” value in test [1] (setting [6]) came out at 0%. The “Agaricus tyr Relative oxygen consumption (%)” value in test [2] (setting [7]) was 0%.

Take `Nc1ccc(O)cc1` [4-Aminophenol]: the “TYR2 Relative oxygen consumption (%)” value in test [1] (setting [6]) turned out to be 8%. In test [2] (setting [7]), the “Agaricus tyr Relative oxygen consumption (%)” value turned out to be 9%.

Take `Oc1ccc(S)cc1` [4-Mercaptophenol]: in test [1] (setting [6]), the “TYR2 Relative oxygen consumption (%)” value amounted to 0%. For the same molecule, in test [2] (setting [7]), the “Agaricus tyr Relative oxygen consumption (%)” value stood at 0%.

With `Oc1cc(O)c2c(c1)O[C@H](c1ccc(O)c(O)c1)[C@@H](O)C2` [(+)-Catechin hydrate], the “TYR2 Relative oxygen consumption (%)” value in test [1] (setting [8]) was found to be 220%. Besides, the “Agaricus tyrosinase Relative oxygen consumption (%)” value in test [2] (setting [9]) was 282%.

Consider `Oc1cc(O)c2c(c1)O[C@H](c1ccc(O)c(O)c1)[C@H](O)C2` [(−)-Epicatechin], for which, in test [1] (setting [8]), the “TYR2 Relative oxygen consumption (%)” value came to 106%. Also, the “Agaricus tyrosinase Relative oxygen consumption (%)” value in test [2] (setting [9]) came out at 286%.

For the molecule `N[C@H](Cc1ccc(O)c(O)c1)C(=O)O` [D-dopa], the “TYR2 Relative oxygen consumption (%)” value in test [1] (L-/DL-/D-dopa, L-dopa = 100) is 18%. Further, the “Agaricus tyrosinase Relative oxygen consumption (%)” value in test [2] (L-/DL-/D-dopa, L-dopa = 100) is reported as 106%.

With `N[C@H](Cc1ccc(O)cc1)C(=O)O` [D-tyrosine], the “TYR2 Relative oxygen consumption (%)” value in test [1] (setting [5]) amounted to 7%. In test [2], the “Agaricus tyrosinase Relative oxygen consumption (%)” value came to 61%.

As to `COc1cc(/C=C/C(=O)O)ccc1O` [Ferulic acid], the “TYR2 Relative oxygen consumption (%)” value in test [1] (setting [6]) is 0%. The “Agaricus tyr Relative oxygen consumption (%)” value in test [2] (setting [7]) was 0%.

With `N[C@@H](Cc1ccc(O)c(O)c1)C(=O)O` [L-Dopa, L-3,4 dihydroxyphenylalanine], the “TYR2 Relative oxygen consumption (%)” value in test [1] (L-/DL-/D-dopa, L-dopa = 100) is listed as 100%; in test [1] (setting [8]), 100%. Besides, the “Agaricus tyrosinase Relative oxygen consumption (%)” value came to 100% in test [2] (L-/DL-/D-dopa, L-dopa = 100) and 100% in test [2] (setting [9]). The “Activity on L-Dopa compared with L-tyrosine” value in test [4] (15 mM L-Dopa, 2 mM L-tyrosine, pH 7.0, 25° C.) is given as “approximately six times higher activity values than L-tyrosine”.

Turning to `N[C@@H](Cc1ccc(O)cc1)C(=O)O` [L-Tyrosine], the “Reaction with indicator in plate test” value in test [3] is “clear positive reactions”. The “TYR2 Relative oxygen consumption (%)” value in test [1] (setting [5]), in test [1] (setting [10]) and in test [1] (setting [6]) was 100% throughout. In addition, the “Agaricus tyrosinase Relative oxygen consumption (%)” value in test [2] and in test [2] (setting [10]) was 100% in each case. Moreover, the “Agaricus tyr Relative oxygen consumption (%)” value in test [2] (setting [7]) turned out to be 100%.

Turning to `Oc1ccccc1` [Phenol], in test [1] (setting [6]), the “TYR2 Relative oxygen consumption (%)” value came out at 121%. Also, the “Agaricus tyr Relative oxygen consumption (%)” value in test [2] (setting [7]) was 85%.

On to `Oc1ccccc1O` [Pyrocatechol], for which the “TYR2 Relative oxygen consumption (%)” value in test [1] (setting [8]) amounted to 88%. In addition, the “Agaricus tyrosinase Relative oxygen consumption (%)” value in test [2] (setting [9]) worked out at 328%.

As for `Oc1cccc(O)c1O` [Pyrogallol], the “TYR2 Relative oxygen consumption (%)” value in test [1] (setting [8]) amounted to 55%. Further, the “Agaricus tyrosinase Relative oxygen consumption (%)” value in test [2] (setting [9]) stood at 248%.

In the case of `CCCCCCCCCCCCOS(=O)(=O)[O-].[Na+]` [SDS, sodium dodecyl sulfate], the “Tyrosinase activity left in presence of SDS” value in test [4] (0.5 mM SDS in the activity assay) is listed as 50%.

Turning to `NCCc1ccc(O)cc1` [Tyramine], the “Reaction with indicator in plate test” value in test [3] is “clear positive reactions”. Besides, in test [1] (setting [6]), the “TYR2 Relative oxygen consumption (%)” value is 42%. The “Agaricus tyr Relative oxygen consumption (%)” value in test [2] (setting [7]) is recorded as 85%.

For `O=C(O)C=Cc1ccccc1O` [o-Coumaric acid], the “TYR2 Relative oxygen consumption (%)” value in test [1] (setting [6]) is recorded as 0%. The “Agaricus tyr Relative oxygen consumption (%)” value in test [2] (setting [7]) is reported as 0%.

For `O=C(O)C=Cc1ccc(O)cc1` [p-Coumaric acid], the “TYR2 Relative oxygen consumption (%)” value in test [1] (setting [6]) amounted to 390%. Moreover, the “Agaricus tyr Relative oxygen consumption (%)” value in test [2] (setting [7]) is listed as 0%.

With `Cc1ccc(O)cc1` [p-Cresol], in test [1] (setting [6]), the “TYR2 Relative oxygen consumption (%)” value came out at 172%. Moreover, the “Agaricus tyr Relative oxygen consumption (%)” value in test [2] (setting [7]) is 104%.

Turning to `OCCc1ccc(O)cc1` [p-Tyrosol], the “TYR2 Relative oxygen consumption (%)” value in test [1] (setting [6]) is 346%. The “Agaricus tyr Relative oxygen consumption (%)” value in test [2] (setting [7]) stood at 157%.

As to Catechin, in test [3], the “Reaction with indicator in plate test” value is “clear positive reactions”.
